Reference: article PMC6934184, “Selective DNA-PKcs inhibition extends the therapeutic index of localized radiotherapy and chemotherapy” (The Journal of Clinical Investigation, 2019)

Biological target: T1, ABL1 M351T (Homo sapiens, UniProt P00519, M351T)
T1 construct: purchased Thermo Fisher Scientific (Life Technologies) SelectScreen
Test: SelectScreen LanthaScreen
Assay type: binding
Settings: read-out: % displacement
How it was run: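 NU5455 was profiled across the SelectScreen Broad panel of kinase activity and binding assays. Z'LYTE reactions such as CSF1R ran at apparent Km ATP, while the Adapta CAMK1 assay used ATP listed as 10. Values are given as percent.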

## CN(C(=O)CN1CCOCC1)c1ccc2sc3c(-c4cccc5c(=O)cc(N6CC7CCC(C6)O7)oc45)cccc3c2c1 [NU5455]
  inhibition at 1 µM: -1%
